Here are results for twelve molecules from US20260242419A1, “A CYCLIC PEPTIDE FOR TRAPPING INTERLEUKIN-1 BETA” (Merck Sharp & Dohme LLC, priority 2023, published 2026).

The target in the experiment is T1, IL-1β (Homo sapiens, UniProt P01584).
T1 construct: purchased BioLegend 579404
The experiment is described as follows: IL-6 assay in MRC5 cells: inhibition of IL-1β induced IL-6 secretion (AlphaLISA). Type of experiment: cell-based. The conditions noted are these: inhibition of IL-1β induced IL-6 secretion in MRC5 cells; compound pre-incubated 1 hour with recombinant human IL-1β; read-out: MRC5 IC50. The procedure, abridged:
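Compound was pre-incubated 1 h at ambient temperature with recombinant human IL-1β at 2λ EC80 before adding human lung fibroblast MRC5 cells (3000/well) in EMEM with 0.025% BSA. After overnight culture at 37 °C, 5% CO2, secreted IL-6 in conditioned medium was measured by AlphaLISA; IC50 from 4-parameter logistic fits.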

Structures are written as SMILES. Non-standard residues stand in square brackets, D forms with d. Residues, ends and D or L forms follow the SMILES beside them. dPro(4R-(4-pyridylmethyl)) = O=C(O)[C@H]1C[C@@H](Cc2ccncc2)CN1; Trp(βS-Me,4-F) = C[C@@H](c1c[nH]c2cccc(F)c12)[C@H](N)C(=O)O; Bip(4'-COOH) = N[C@@H](Cc1ccc(-c2ccc(C(=O)O)cc2)cc1)C(=O)O; Trp(4-Cl) = N[C@@H](Cc1c[nH]c2cccc(Cl)c12)C(=O)O; Ala(pyrimidin-5-yl) = N[C@@H](Cc1cncnc1)C(=O)O; Phe(4-COOH) = N[C@@H](Cc1ccc(C(=O)O)cc1)C(=O)O; Trp(4-F) = N[C@@H](Cc1c[nH]c2cccc(F)c12)C(=O)O; Bip = N[C@@H](Cc1ccc(-c2ccccc2)cc1)C(=O)O; Pro(cis-4-F) = O=C(O)[C@@H]1C[C@H](F)CN1; d(αMeF) = C[C@@](N)(Cc1ccccc1)C(=O)O; Dap(CONH2) = NC(=O)NC[C@H](N)C(=O)O; hTyr = N[C@@H](CCc1ccc(O)cc1)C(=O)O; d(αMeD) = C[C@@](N)(CC(=O)O)C(=O)O; 4Pal = N[C@@H](Cc1ccncc1)C(=O)O; aThr = C[C@H](O)[C@H](N)C(=O)O; dDab = NCC[C@@H](N)C(=O)O; Dab = NCC[C@H](N)C(=O)O; Nva = CCC[C@H](N)C(=O)O; Aib = CC(C)(N)C(=O)O

T1 sequence (P01584 117-269): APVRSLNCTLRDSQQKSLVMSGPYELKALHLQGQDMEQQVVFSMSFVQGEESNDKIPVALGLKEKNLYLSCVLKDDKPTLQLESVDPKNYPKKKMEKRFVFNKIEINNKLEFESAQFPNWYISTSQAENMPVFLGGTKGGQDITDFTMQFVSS

Consider `C[C@@H](c1c[nH]c2cccc(F)c12)[C@@H]1NC(=O)[C@@H]2C[C@H](F)CN2C(=O)CNC(=O)[C@H](Cc2ccc(C(=O)O)cc2)NC(=O)[C@H](Cc2ccncc2)NC(=O)[C@H](Cc2ccc(-c3ccccc3)cc2)NC(=O)[C@H]2C[C@@H](Cc3ccncc3)CN2C(=O)CNC(=O)[C@H](CNC(N)=O)NC(=O)[C@H](CCC(N)=O)NC(=O)[C@@H](CCN)NC(=O)[C@@](C)(CC(=O)O)NC(=O)[C@H](Cc2c[nH]c3ccccc23)NC(=O)[C@H](CO)NC(=O)C(C)(C)NC1=O` [Example 247] (cyclo([Bip][4Pal][Phe(4-COOH)]G[Pro(cis-4-F)][Trp(βS-Me,4-F)][Aib]SW[d(αMeD)][dDab]Q[Dap(CONH2)]G[dPro(4R-(4-pyridylmethyl))])), for which the IC50 came out at 0.03 nM.

On to `C[C@@H](c1c[nH]c2cccc(F)c12)[C@@H]1NC(=O)[C@@H]2C[C@H](F)CN2C(=O)CNC(=O)[C@H](Cc2ccc(C(=O)O)cc2)NC(=O)[C@H](Cc2ccncc2)NC(=O)[C@H](Cc2ccc(-c3ccccc3)cc2)NC(=O)[C@H]2C[C@@H](Cc3ccncc3)CN2C(=O)CNC(=O)[C@H](CCN)NC(=O)[C@H](CCC(N)=O)NC(=O)[C@@H](CCN)NC(=O)[C@@](C)(CC(=O)O)NC(=O)[C@H](Cc2c[nH]c3ccccc23)NC(=O)[C@H](CO)NC(=O)C(C)(C)NC1=O` [Example 248] (cyclo([Bip][4Pal][Phe(4-COOH)]G[Pro(cis-4-F)][Trp(βS-Me,4-F)][Aib]SW[d(αMeD)][dDab]Q[Dab]G[dPro(4R-(4-pyridylmethyl))])), for which the IC50 was 0.028 nM.

As for `C[C@@H](c1c[nH]c2cccc(F)c12)[C@@H]1NC(=O)[C@@H]2C[C@H](F)CN2C(=O)CNC(=O)[C@H](Cc2ccc(C(=O)O)cc2)NC(=O)[C@H](Cc2ccncc2)NC(=O)[C@H](Cc2ccc(-c3ccccc3)cc2)NC(=O)[C@H]2C[C@@H](Cc3ccncc3)CN2C(=O)CNC(=O)[C@H](CCN)NC(=O)[C@H](CCC(N)=O)NC(=O)[C@@H](CCC(=O)O)NC(=O)[C@@](C)(CC(=O)O)NC(=O)[C@H](Cc2c[nH]c3ccccc23)NC(=O)[C@H](CO)NC(=O)C(C)(C)NC1=O` [Example 249] (cyclo([Bip][4Pal][Phe(4-COOH)]G[Pro(cis-4-F)][Trp(βS-Me,4-F)][Aib]SW[d(αMeD)][dE]Q[Dab]G[dPro(4R-(4-pyridylmethyl))])), the half-maximal inhibitory concentration (IC50) amounted to 0.016 nM.

Regarding `C[C@@H](c1c[nH]c2cccc(F)c12)[C@@H]1NC(=O)[C@@H]2C[C@H](F)CN2C(=O)CNC(=O)[C@H](Cc2ccc(C(=O)O)cc2)NC(=O)[C@H](Cc2ccncc2)NC(=O)[C@H](Cc2ccc(-c3ccccc3)cc2)NC(=O)[C@H]2C[C@@H](Cc3ccncc3)CN2C(=O)CNC(=O)[C@H](CCN)NC(=O)[C@H](CCC(N)=O)NC(=O)[C@@H](CCC(=O)O)NC(=O)C(C)(C)NC(=O)[C@H](Cc2c[nH]c3ccccc23)NC(=O)[C@H](CO)NC(=O)C(C)(C)NC1=O` [Example 250] (cyclo([Bip][4Pal][Phe(4-COOH)]G[Pro(cis-4-F)][Trp(βS-Me,4-F)][Aib]SW[Aib][dE]Q[Dab]G[dPro(4R-(4-pyridylmethyl))])), the IC50 amounted to 0.027 nM.

For `C[C@@H](c1c[nH]c2cccc(F)c12)[C@@H]1NC(=O)[C@@H]2C[C@H](F)CN2C(=O)CNC(=O)[C@H](Cc2ccc(C(=O)O)cc2)NC(=O)[C@H](Cc2ccncc2)NC(=O)[C@H](Cc2ccc(-c3ccc(C(=O)O)cc3)cc2)NC(=O)[C@H]2C[C@@H](Cc3ccncc3)CN2C(=O)CNC(=O)[C@H](CCN)NC(=O)[C@H](CCC(N)=O)NC(=O)[C@H](Cc2cncnc2)NC(=O)[C@@](C)(CC(=O)O)NC(=O)[C@H](Cc2c[nH]c3cccc(Cl)c23)NC(=O)[C@H](CO)NC(=O)C(C)(C)NC1=O` [Example 251] (cyclo([Bip(4'-COOH)][4Pal][Phe(4-COOH)]G[Pro(cis-4-F)][Trp(βS-Me,4-F)][Aib]S[Trp(4-Cl)][d(αMeD)][Ala(pyrimidin-5-yl)]Q[Dab]G[dPro(4R-(4-pyridylmethyl))])), the IC50 came to 0.013 nM.

As to `C[C@@H](c1c[nH]c2cccc(F)c12)[C@@H]1NC(=O)[C@@H]2C[C@H](F)CN2C(=O)CNC(=O)[C@H](Cc2ccc(C(=O)O)cc2)NC(=O)[C@H](Cc2ccncc2)NC(=O)[C@H](Cc2ccc(-c3ccc(C(=O)O)cc3)cc2)NC(=O)[C@H]2C[C@@H](Cc3ccncc3)CN2C(=O)CNC(=O)[C@H](CCN)NC(=O)[C@H](CCC(N)=O)NC(=O)[C@H](Cc2cncnc2)NC(=O)[C@@](C)(CC(=O)O)NC(=O)[C@H](Cc2c[nH]c3cccc(F)c23)NC(=O)[C@H](CO)NC(=O)C(C)(C)NC1=O` [Example 252] (cyclo([Bip(4'-COOH)][4Pal][Phe(4-COOH)]G[Pro(cis-4-F)][Trp(βS-Me,4-F)][Aib]S[Trp(4-F)][d(αMeD)][Ala(pyrimidin-5-yl)]Q[Dab]G[dPro(4R-(4-pyridylmethyl))])), the half-inhibitory concentration (IC50) came out at 0.013 nM.

In the case of `CCC[C@@H]1NC(=O)[C@@](C)(CC(=O)O)NC(=O)[C@H](Cc2c[nH]c3ccccc23)NC(=O)[C@H](CO)NC(=O)C(C)(C)NC(=O)[C@H]([C@@H](C)c2c[nH]c3cccc(F)c23)NC(=O)[C@@H]2C[C@H](F)CN2C(=O)CNC(=O)[C@H](Cc2ccc(C(=O)O)cc2)NC(=O)[C@H](Cc2ccncc2)NC(=O)[C@H](Cc2ccc(-c3ccc(C(=O)O)cc3)cc2)NC(=O)[C@H]2C[C@@H](Cc3ccncc3)CN2C(=O)CNC(=O)[C@H](CCN)NC(=O)[C@H](CCC(N)=O)NC1=O` [Example 253] (cyclo([Bip(4'-COOH)][4Pal][Phe(4-COOH)]G[Pro(cis-4-F)][Trp(βS-Me,4-F)][Aib]SW[d(αMeD)][Nva]Q[Dab]G[dPro(4R-(4-pyridylmethyl))])), the IC50 was 0.013 nM.

As to `CO[C@@H](C)[C@@H]1NC(=O)[C@@](C)(CC(=O)O)NC(=O)[C@H](Cc2c[nH]c3ccccc23)NC(=O)[C@H](CO)NC(=O)C(C)(C)NC(=O)[C@H]([C@@H](C)c2c[nH]c3cccc(F)c23)NC(=O)[C@@H]2C[C@H](F)CN2C(=O)CNC(=O)[C@H](Cc2ccc(C(=O)O)cc2)NC(=O)[C@H](Cc2ccncc2)NC(=O)[C@H](Cc2ccc(-c3ccc(C(=O)O)cc3)cc2)NC(=O)[C@H]2C[C@@H](Cc3ccncc3)CN2C(=O)CNC(=O)[C@H](CCN)NC(=O)[C@H](CCC(N)=O)NC1=O` [Example 254] (cyclo([Bip(4'-COOH)][4Pal][Phe(4-COOH)]G[Pro(cis-4-F)][Trp(βS-Me,4-F)][Aib]SW[d(αMeD)][aThr](Me)Q[Dab]G[dPro(4R-(4-pyridylmethyl))])), the concentration for half-maximal inhibition (IC50) amounted to 0.013 nM.

Turning to `CO[C@H](C)[C@@H]1NC(=O)[C@@](C)(CC(=O)O)NC(=O)[C@H](Cc2c[nH]c3ccccc23)NC(=O)[C@H](CO)NC(=O)C(C)(C)NC(=O)[C@H]([C@@H](C)c2c[nH]c3cccc(F)c23)NC(=O)[C@@H]2C[C@H](F)CN2C(=O)CNC(=O)[C@H](Cc2ccc(C(=O)O)cc2)NC(=O)[C@H](Cc2ccncc2)NC(=O)[C@H](Cc2ccc(-c3ccc(C(=O)O)cc3)cc2)NC(=O)[C@H]2C[C@@H](Cc3ccncc3)CN2C(=O)CNC(=O)[C@H](CCN)NC(=O)[C@H](CCC(N)=O)NC1=O` [Example 255] (cyclo([Bip(4'-COOH)][4Pal][Phe(4-COOH)]G[Pro(cis-4-F)][Trp(βS-Me,4-F)][Aib]SW[d(αMeD)]T(Me)Q[Dab]G[dPro(4R-(4-pyridylmethyl))])), the half-maximal inhibitory concentration (IC50) came out at 0.011 nM.

For `C[C@@H](c1c[nH]c2cccc(F)c12)[C@@H]1NC(=O)[C@@H]2C[C@H](F)CN2C(=O)CNC(=O)[C@H](Cc2ccc(C(=O)O)cc2)NC(=O)[C@H](Cc2ccncc2)NC(=O)[C@H](Cc2ccc(-c3ccc(C(=O)O)cc3)cc2)NC(=O)[C@H]2C[C@@H](Cc3ccncc3)CN2C(=O)CNC(=O)[C@H](CCN)NC(=O)[C@H](CCC(N)=O)NC(=O)[C@H](CCc2ccc(O)cc2)NC(=O)[C@@](C)(CC(=O)O)NC(=O)[C@H](Cc2c[nH]c3ccccc23)NC(=O)[C@H](CO)NC(=O)C(C)(C)NC1=O` [Example 256] (cyclo([Bip(4'-COOH)][4Pal][Phe(4-COOH)]G[Pro(cis-4-F)][Trp(βS-Me,4-F)][Aib]SW[d(αMeD)][hTyr]Q[Dab]G[dPro(4R-(4-pyridylmethyl))])), the IC50 was 0.012 nM.

Consider `C[C@H](O)[C@@H]1NC(=O)[C@@](C)(Cc2ccccc2)NC(=O)[C@H](Cc2c[nH]c3ccccc23)NC(=O)[C@H](CO)NC(=O)C(C)(C)NC(=O)[C@H]([C@@H](C)c2c[nH]c3cccc(F)c23)NC(=O)[C@@H]2C[C@H](F)CN2C(=O)CNC(=O)[C@H](Cc2ccc(C(=O)O)cc2)NC(=O)[C@H](Cc2ccncc2)NC(=O)[C@H](Cc2ccc(-c3ccc(C(=O)O)cc3)cc2)NC(=O)[C@H]2C[C@@H](Cc3ccncc3)CN2C(=O)CNC(=O)[C@H](CCN)NC(=O)[C@H](CCC(N)=O)NC1=O` [Example 257] (cyclo([Bip(4'-COOH)][4Pal][Phe(4-COOH)]G[Pro(cis-4-F)][Trp(βS-Me,4-F)][Aib]SW[d(αMeF)][aThr]Q[Dab]G[dPro(4R-(4-pyridylmethyl))])), for which the IC50 was 0.021 nM.

On to `C[C@@H](c1c[nH]c2cccc(F)c12)[C@@H]1NC(=O)[C@@H]2C[C@H](F)CN2C(=O)CNC(=O)[C@H](Cc2ccc(C(=O)O)cc2)NC(=O)[C@H](Cc2ccncc2)NC(=O)[C@H](Cc2ccc(-c3ccc(C(=O)O)cc3)cc2)NC(=O)[C@H]2C[C@@H](Cc3ccncc3)CN2C(=O)CNC(=O)[C@H](CCN)NC(=O)[C@H](CCC(N)=O)NC(=O)[C@H](CCC(=O)O)NC(=O)[C@@](C)(Cc2ccccc2)NC(=O)[C@H](Cc2c[nH]c3ccccc23)NC(=O)[C@H](CO)NC(=O)C(C)(C)NC1=O` [Example 258] (cyclo([Bip(4'-COOH)][4Pal][Phe(4-COOH)]G[Pro(cis-4-F)][Trp(βS-Me,4-F)][Aib]SW[d(αMeF)]EQ[Dab]G[dPro(4R-(4-pyridylmethyl))])), for which the half-inhibitory concentration (IC50) turned out to be 0.02 nM.

The term IC50 denotes the concentration that gives 50% inhibition.
